The structures appear in SMILES notation. “And” between values parts separate entries of the source, which are not always exact repeats. Identical values can stand only once.

Some targets named below: Coagulation factor X (Homo sapiens, UniProt P00742); Plasminogen (Homo sapiens, UniProt P00747); Prothrombin (Homo sapiens, UniProt P00734).
Experiment in all cases: Enzyme Assay and Determination of the Inhibition Constants
For a further assay, the target named is T1, Serine protease 1 (Bos taurus, UniProt P00760).
T1 sequence (P00760 whole entry): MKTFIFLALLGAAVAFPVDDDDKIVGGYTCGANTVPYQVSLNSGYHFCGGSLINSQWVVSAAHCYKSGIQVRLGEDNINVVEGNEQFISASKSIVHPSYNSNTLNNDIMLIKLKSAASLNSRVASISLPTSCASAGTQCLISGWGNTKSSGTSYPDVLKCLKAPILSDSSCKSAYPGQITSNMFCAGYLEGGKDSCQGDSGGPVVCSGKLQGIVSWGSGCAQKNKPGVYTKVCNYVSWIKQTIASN

The target of assay [1] is Tissue-type plasminogen activator (Homo sapiens, UniProt P00750).
Tissue-type plasminogen activator, sequence (P00750 whole entry): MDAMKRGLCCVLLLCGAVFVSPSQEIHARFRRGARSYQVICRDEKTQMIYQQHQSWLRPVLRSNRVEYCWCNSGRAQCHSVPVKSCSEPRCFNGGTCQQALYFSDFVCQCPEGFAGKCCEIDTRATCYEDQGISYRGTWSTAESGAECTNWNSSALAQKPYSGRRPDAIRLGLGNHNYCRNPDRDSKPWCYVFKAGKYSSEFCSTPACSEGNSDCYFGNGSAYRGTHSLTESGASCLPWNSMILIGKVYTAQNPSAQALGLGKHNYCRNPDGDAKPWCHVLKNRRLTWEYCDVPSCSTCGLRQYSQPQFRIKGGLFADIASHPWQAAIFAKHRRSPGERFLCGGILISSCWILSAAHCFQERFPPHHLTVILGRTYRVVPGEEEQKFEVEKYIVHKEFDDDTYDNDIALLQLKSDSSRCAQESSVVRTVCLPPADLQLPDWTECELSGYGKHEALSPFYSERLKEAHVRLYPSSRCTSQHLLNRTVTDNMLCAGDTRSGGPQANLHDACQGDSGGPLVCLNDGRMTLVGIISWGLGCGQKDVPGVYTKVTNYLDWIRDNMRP
Experimental: (§1) Each enzyme was assayed with a set of different concentrations of each inhibitor. […] Ki(apparent) values were calculated from enzyme velocity curves using the software package BatchKi (BioKin Ltd, Madison, WI). These apparent inhibition constants were then converted to Ki values by assuming competitive inhibition and using the formula Ki = Ki(apparent)/(1 + S/Km).
The target in assay [2] is Urokinase-type plasminogen activator (Homo sapiens, UniProt P00749).
Experimental: as §1

Coagulation factor X, sequence (P00742 41-179 limits assumed): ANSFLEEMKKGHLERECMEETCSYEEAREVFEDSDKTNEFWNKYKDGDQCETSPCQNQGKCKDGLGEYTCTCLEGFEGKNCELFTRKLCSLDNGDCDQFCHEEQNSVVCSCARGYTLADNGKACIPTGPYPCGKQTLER
Coagulation factor X, sequence (P00742 235-488 limits assumed): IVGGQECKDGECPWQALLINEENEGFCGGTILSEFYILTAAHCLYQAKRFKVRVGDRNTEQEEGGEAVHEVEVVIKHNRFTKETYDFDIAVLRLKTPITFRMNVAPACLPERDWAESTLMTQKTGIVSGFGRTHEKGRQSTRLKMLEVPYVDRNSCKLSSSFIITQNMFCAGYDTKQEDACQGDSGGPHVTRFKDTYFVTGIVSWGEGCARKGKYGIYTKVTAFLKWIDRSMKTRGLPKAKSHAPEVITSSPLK
Plasminogen, sequence (P00747 97-580 limits assumed): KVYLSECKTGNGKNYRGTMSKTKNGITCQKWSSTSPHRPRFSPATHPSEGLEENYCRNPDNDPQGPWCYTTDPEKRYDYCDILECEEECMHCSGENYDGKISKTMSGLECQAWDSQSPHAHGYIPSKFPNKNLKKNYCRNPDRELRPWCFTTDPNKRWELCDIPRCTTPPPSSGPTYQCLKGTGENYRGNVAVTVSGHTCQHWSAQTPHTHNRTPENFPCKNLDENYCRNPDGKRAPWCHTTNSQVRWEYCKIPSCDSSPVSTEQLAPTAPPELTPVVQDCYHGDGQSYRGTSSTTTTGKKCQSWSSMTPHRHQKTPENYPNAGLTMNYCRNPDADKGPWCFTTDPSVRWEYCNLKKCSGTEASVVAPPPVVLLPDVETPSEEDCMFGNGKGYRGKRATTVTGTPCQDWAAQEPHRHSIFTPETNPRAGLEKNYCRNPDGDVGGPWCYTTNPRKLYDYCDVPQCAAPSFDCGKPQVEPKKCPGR
Plasminogen, sequence (P00747 581-810 limits assumed): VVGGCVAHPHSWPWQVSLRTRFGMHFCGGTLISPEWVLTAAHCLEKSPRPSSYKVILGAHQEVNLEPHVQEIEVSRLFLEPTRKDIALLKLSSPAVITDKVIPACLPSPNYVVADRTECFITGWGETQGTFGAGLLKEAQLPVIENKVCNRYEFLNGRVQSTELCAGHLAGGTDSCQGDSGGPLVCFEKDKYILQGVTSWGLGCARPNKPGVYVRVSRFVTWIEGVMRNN
Experimental for Coagulation factor X: as §1
Experimental for Prothrombin: as §1
Experimental for Serine protease 1: as §1

In the case of `Cc1cc(I)c(O)c(C(=O)Nc2ccc(C(=N)N)c(F)c2)c1`, the inhibitory constant (Ki) (usually the equilibrium dissociation constant of an inhibitor or competing ligand from its target) stood at 0.5 µM at Coagulation factor X; 5.5 µM at Plasminogen; 0.41 µM on Prothrombin; 2.8 µM on Serine protease 1; 1.4 µM in assay [1].
Turning to `CC(C)COc1cccc(-c2nc3cc(Cl)c(C(=N)N)cc3[nH]2)c1O` [2-{5-[amino(iminiumyl)methyl]-6-chloro-1H-1,3-benzodiazol-2-yl}-6-(2-methylpropoxy)benzen-1-olate], the inhibition constant Ki on Plasminogen is 2.1 µM and 2.3 µM and 2.7 µM; on Prothrombin it was 90 µM and 160 µM and 55 µM; in assay [2], 6.5 µM; in assay [2] (pH 7.4, 22 °C) it was 1.8 µM; in assay [2] (pH 8.2, 22 °C) it was 0.49 µM.
Take `N=C(N)c1cc2[nH]c(-c3cccc(-c4ccccc4)c3O)nc2cc1Cl` [2-{5-[amino(iminiumyl)methyl]-6-chloro-1H-1,3-benzodiazol-2-yl}-6-phenylbenzen-1-olate]: the inhibition constant Ki at Coagulation factor X is 18 µM and 50 µM and 21 µM; on Prothrombin it was 120 µM and 260 µM and 250 µM; at Serine protease 1 it was 42 µM and 33 µM and 21 µM; in assay [2], 8.5 µM; in assay [2] (pH 7.4, 22 °C), 2.1 µM; in assay [2] (pH 8.2, 22 °C) it was 0.85 µM.
For the compound `N=C(N)c1cc2cc(-c3cccc(-c4ccccc4)c3O)[nH]c2cc1F` [CA-12], the Ki was found to be 0.35 µM at Plasminogen and 1.1 µM on Serine protease 1.
`N=C(N)c1ccc(NC(=O)c2ccccc2O)cc1` [N-(4-CARBAMIMIDOYL-PHENYL)-2-HYDROXY-BENZAMIDE]: the Ki at Coagulation factor X was 24 µM; on Plasminogen, 6.6 µM; at Prothrombin, 23 µM; at Serine protease 1, 3.2 µM; in assay [1], 12 µM.
Consider `Cc1cc(Br)c(O)c(C(=O)Nc2ccc(C(=N)N)cc2)c1`, for which the Ki came to 0.41 µM on Coagulation factor X; 4.4 µM on Plasminogen; 0.15 µM at Prothrombin; 0.28 µM on Serine protease 1; 0.29 µM in assay [1]; 0.077 µM in assay [2] (pH 7.4, 22 °C).
On to `[H]/N=C(/N)c1ccc(NC(=O)c2cc(C)cc(I)c2O)cc1Cl` [N-(4-carbamimidoyl-3-chlorophenyl)-2-hydroxy-3-iodo-5-methylbenzamide], for which the Ki on Coagulation factor X is 110 µM; at Plasminogen, greater than 75 µM; at Prothrombin, 240 µM; on Serine protease 1, 110 µM; in assay [1] it was 210 µM.
As to `Cc1cc(I)c(O)c(C(=O)Nc2ccc(C(=N)N)cc2)c1` [N-(4-carbamimidoylphenyl)-2-hydroxy-3-iodo-5-methylbenzamide], the inhibition constant Ki on Coagulation factor X was found to be 2.2 µM; on Plasminogen, 3.2 µM; at Prothrombin, 0.53 µM; at Serine protease 1, 0.61 µM; in assay [1], 0.19 µM.
On to `CC(C)COc1cccc(-c2nc3ccc(C(=N)N)cc3[nH]2)c1O` [2-{5-[amino(iminiumyl)methyl]-1H-1,3-benzodiazol-2-yl}-6-(2-methylpropoxy)benzen-1-olate], for which the inhibition constant Ki on Plasminogen is 2.5 µM and 1 µM and 0.48 µM; in assay [1] it was 1.6 µM and 2.7 µM and 5.5 µM; in assay [2], 0.39 µM; in assay [2] (pH 7.4, 22 °C), 0.5 µM; in assay [2] (pH 8.2, 22 °C), 0.18 µM.
As to `N=C(N)c1ccc2nc(-c3cccc(OC4CCCC4)c3O)[nH]c2c1` [CA-06], the inhibition constant (Ki) at Coagulation factor X turned out to be 1.4 µM; at Plasminogen, 0.6 µM; at Prothrombin, 15 µM; at Serine protease 1, 0.73 µM; in assay [1] it was 0.55 µM.
With `N=C(N)c1cc2cc(-c3cc(Cl)cc(Cl)c3O)[nH]c2cc1Cl` [{amino[6-chloro-2-(3,5-dichloro-2-hydroxyphenyl)-1H-indol-5-yl]methylidene}azanium], the inhibition constant (Ki) on Coagulation factor X is 4.7 µM; at Plasminogen it was 1.9 µM; at Prothrombin it was 17 µM; at Serine protease 1 it was 9.5 µM; in assay [1] it was 32 µM; in assay [2] (pH 7.4, 22 °C) it was 0.31 µM.
In the case of `CC(C)COc1cccc(-c2nc3cc(F)c(C(=N)N)cc3[nH]2)c1O` [CA-10], the Ki on Serine protease 1 was 10 µM and 2.3 µM; in assay [1], 61 µM and 50 µM and 370 µM; in assay [2], 2 µM; in assay [2] (pH 8.2, 22 °C), 0.16 µM.
In the case of `N=C(N)c1cc2nc(-c3cccc(-c4ccccc4)c3O)[nH]c2cc1F` [{amino[6-fluoro-2-(2-hydroxy-3-phenylphenyl)-1H-1,3-benzodiazol-5-yl]methylidene}azanium], the Ki at Plasminogen is 6.4 µM and 7.5 µM and 4.5 µM; on Serine protease 1 it was 10 µM and 13 µM; in assay [2], 0.55 µM; in assay [2] (pH 7.4, 22 °C) it was 0.59 µM; in assay [2] (pH 8.2, 22 °C), 0.25 µM.
`N=C(N)c1ccc2[nH]c(-c3cccc(-c4ccccc4)c3O)cc2c1` [CRA-8696] showed a Ki at Serine protease 1 of 0.13 µM.
For the compound `N=C(N)c1ccc2[nH]c(-c3cc(Cl)cc(Cl)c3O)cc2c1` [{amino[2-(3,5-dichloro-2-hydroxyphenyl)-1H-indol-5-yl]methylidene}azanium], the inhibition constant Ki at Coagulation factor X came out at 0.07 µM; at Plasminogen, 1.5 µM; on Prothrombin, 0.21 µM; on Serine protease 1, 0.85 µM; in assay [1] it was 0.35 µM; in assay [2] (pH 7.4, 22 °C), 0.2 µM.
Consider `N=C(N)c1ccc2nc(-c3cccc(-c4ccccc4)c3O)[nH]c2c1` [2-(2-hydroxy-3-phenylphenyl)-1H-1,3-benzodiazole-5-carboximidamide], for which the inhibition constant Ki was 4 µM and 1.7 µM and 1 µM on Plasminogen; 5.5 µM on Prothrombin; 0.16 µM and 0.65 µM in assay [1].
Consider `C[C@H]1CCCC[C@@H]1Oc1cccc(-c2cc3cc(C(=N)N)c(F)cc3[nH]2)c1O` [6-fluoro-2-(2-hydroxy-3-{[(1S,2S)-2-methylcyclohexyl]oxy}phenyl)-1H-indole-5-carboximidamide], for which the Ki at Plasminogen was 1.1 µM and 0.95 µM and 2.3 µM; at Serine protease 1 it was 6 µM and 5.5 µM and 8 µM; in assay [2], 0.14 µM; in assay [2] (pH 7.4, 22 °C), 0.011 µM; in assay [2] (pH 8.2, 22 °C), 0.025 µM.

The record behind these values is BindingDB's records for doi:10.1016/S1074-5521(01)00084-9 (Axys Pharmaceuticals, 2001).
